# Reference: ChEMBL document CHEMBL1143688 (J Med Chem, 2007)
# Assays:
# Phosphodiesterase 3 = Phosphodiesterase 3 (Homo sapiens, UniProt Q14432+Q13370); experiment: Inhibition of human platelet PDE3
# Plasma = experiment: Inhibition of 10.0 ug/mL collagen-induced platelet aggregation in human platelet rich plasma; assay type: functional
Structure (SMILES),IC50 (Phosphodiesterase 3),IC50 (Plasma)
Cc1c(OCc2cccnc2)ccc2c(N3CCNCC3)cc(=O)oc12,0.037 µM,–
O=c1cc(N2CCNCC2)c2ccccc2o1,–,36 µM
O=c1cc(N2CCNCC2)oc2ccccc12,–,60 µM

# Now from value to compound, other results behind:
IC50 (Phosphodiesterase 3),Structure (SMILES),IC50 (Plasma)
0.078 µM,Cc1c(OCCN2CCOCC2)ccc2c(N3CCNCC3)cc(=O)oc12,–
0.28 µM,O=C1CCc2cc(OCCCCc3nnnn3C3CCCCC3)ccc2N1 [CILOSTAZOL],–
